Measured values as given in ChEMBL document CHEMBL1155870, “Design and synthesis of novel oxazole containing 1,3-dioxane-2-carboxylic acid derivatives as PPAR alpha/gamma dual agonists” (Bioorg Med Chem, 2008).
pEC50: −log10 of the molar value. Calls of active or inactive are those of the source. The rule behind the calls is not given here.

Assays:
[1] = target: T1, Peroxisome proliferator-activated receptor alpha (Homo sapiens) (UniProt Q07869); assay: Agonist activity at PPARalpha expressed in human HepG2 cells at 10 uM assessed as induction of receptor transactivation by reporter gene assay relative to control; type: functional, cell-based
T1 sequence (whole entry): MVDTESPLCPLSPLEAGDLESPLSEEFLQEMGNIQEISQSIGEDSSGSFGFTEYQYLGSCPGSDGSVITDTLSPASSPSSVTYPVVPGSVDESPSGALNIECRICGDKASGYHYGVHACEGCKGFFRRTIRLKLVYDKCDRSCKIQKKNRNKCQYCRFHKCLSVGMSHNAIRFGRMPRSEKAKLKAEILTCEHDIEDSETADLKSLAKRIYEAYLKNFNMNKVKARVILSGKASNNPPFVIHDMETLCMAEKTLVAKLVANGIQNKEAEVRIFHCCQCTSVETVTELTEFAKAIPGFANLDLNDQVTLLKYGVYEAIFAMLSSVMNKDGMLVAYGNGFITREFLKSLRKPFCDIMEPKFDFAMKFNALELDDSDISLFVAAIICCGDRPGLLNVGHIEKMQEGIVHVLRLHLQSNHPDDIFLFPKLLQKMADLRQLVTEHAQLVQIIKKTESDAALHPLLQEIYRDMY

[2] = target: T2, Peroxisome proliferator-activated receptor alpha (Homo sapiens, UniProt Q07869); assay: Agonist activity at PPARalpha expressed in human HepG2 cells assessed as induction of receptor transactivation by reporter gene assay relative to control; type: functional, cell-based
T2 sequence (Q07869 whole entry): T1 sequence (whole entry)

[3] = target: T3, Peroxisome proliferator-activated receptor gamma (Homo sapiens, UniProt P37231)
T3 sequence (P37231 whole entry): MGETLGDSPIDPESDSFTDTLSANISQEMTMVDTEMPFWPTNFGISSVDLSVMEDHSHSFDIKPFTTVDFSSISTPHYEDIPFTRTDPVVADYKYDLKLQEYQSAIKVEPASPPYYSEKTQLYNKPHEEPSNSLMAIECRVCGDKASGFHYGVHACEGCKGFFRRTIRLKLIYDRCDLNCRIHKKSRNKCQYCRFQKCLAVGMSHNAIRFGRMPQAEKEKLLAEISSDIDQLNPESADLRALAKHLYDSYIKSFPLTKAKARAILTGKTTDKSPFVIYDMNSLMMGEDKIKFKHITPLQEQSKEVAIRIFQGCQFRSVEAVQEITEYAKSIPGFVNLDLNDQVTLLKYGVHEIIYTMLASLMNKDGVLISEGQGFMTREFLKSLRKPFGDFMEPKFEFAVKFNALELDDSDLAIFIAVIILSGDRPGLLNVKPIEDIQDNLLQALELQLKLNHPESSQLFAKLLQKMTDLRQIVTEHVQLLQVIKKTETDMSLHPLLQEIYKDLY
Description: Agonist activity at PPARgamma expressed in human HepG2 cells assessed as induction of receptor transactivation by reporter gene assay relative to control

Mus musculus [4] = assay: Hypolipidemic activity in db/db mouse assessed as reduction in triglyceride level at 3 mg/kg/day, po for 6 days; type: functional; set-up: scale not given: the % may be the effect or the level left
Mus musculus [5] = assay: Hypoglycemic activity in db/db mouse assessed as reduction in plasma glucose level at 3 mg/kg/day, po for 6 days; type: functional; set-up: scale not given: the % may be the effect or the level left
Rattus norvegicus [6] = assay: Hypolipidemic activity in Zucker diabetic fa/fa rat assessed as reduction in total cholesterol level at 3 mg/kg/day, po for 14 days; type: functional; set-up: scale not given: the % may be the effect or the level left
Rattus norvegicus [7] = assay: Hypoglycemic activity in Zucker diabetic fa/fa rat assessed as improvement in glucose AUC at 3 mg/kg/day, po for 14 days; type: functional
Rattus norvegicus [8] = assay: Insulin sensitizing activity in Zucker diabetic fa/fa rat assessed as reduction in fasted insulin level at 3 mg/kg/day, po for 14 days; type: functional; set-up: scale not given: the % may be the effect or the level left
Rattus norvegicus [9] = assay: Hypolipidemic activity in Zucker diabetic fa/fa rat assessed as reduction in triglyceride level at 3 mg/kg/day, po for 14 days; type: functional; set-up: scale not given: the % may be the effect or the level left
[10] = AUC (0 to infinity) in Wistar rat at 30 mg/kg, po; type: ADME, organism-based; set-up: time infinity, dose 30 mg/kg, route oral; conditions: plasma
[11] = Half life in Wistar rat at 30 mg/kg, po; type: ADME, organism-based; set-up: dose 30 mg/kg, route oral; conditions: in vivo
[12] = Cmax in Wistar rat at 30 mg/kg, po; type: ADME, organism-based; set-up: dose 30 mg/kg, route oral; conditions: in vivo
[13] = Tmax in Wistar rat at 30 mg/kg, po; type: ADME, organism-based; set-up: dose 30 mg/kg, route oral; conditions: in vivo
Mus musculus [14] = assay: Hypoglycemic activity in db/db mouse assessed as reduction in plasma glucose level at 30 mg/kg/day, po for 6 days; type: functional, organism-based; set-up: route oral; scale not given: the % may be the effect or the level left

Row | Structure (SMILES) | fold change (FC) [1] | pEC50 [2] | pEC50 [3] | also measured
1 | Cc1ccc(-c2nc(COc3ccc([C@H]4CO[C@@](C)(C(=O)O)OC4)cc3)c(C)o2)cc1 | 2.7 | – | – | –
2 | Cc1ccc(-c2nc(COc3ccc(C[C@H]4CO[C@@](C)(C(=O)O)OC4)cc3)c(C)o2)s1 | 5.6 | 9.22 | 7.70 | –
3 | Cc1oc(-c2ccccc2)nc1COc1ccc([C@H]2CO[C@@](C)(C(=O)O)OC2)cc1 | 3 | – | – | –
4 | Cc1oc(-c2ccccc2)nc1COc1ccc(C[C@H]2CO[C@@](C)(C(=O)O)OC2)cc1 | 6.5 | 8.96 | 7.02 | –
5 | Cc1oc(C(C)(C)C)nc1COc1ccc(C[C@H]2CO[C@@](C)(C(=O)O)OC2)cc1 | 2.3 | – | – | –
6 | Cc1ccc(-c2nc(CCCOc3ccc(C[C@H]4CO[C@@](C)(C(=O)O)OC4)cc3)c(C)o2)cc1 | 1.8 | – | – | –
7 | CCO[C@@H](Cc1ccc(OCCc2ccc(OS(C)(=O)=O)cc2)cc1)C(=O)O [TESAGLITAZAR] | – | – | – | Activity (Mus musculus [4]): 60%; Activity (Mus musculus [5]): 54%; Activity (Rattus norvegicus [6]): 16%; Activity (Rattus norvegicus [7]): 51%; Activity (Rattus norvegicus [8]): 91%; Activity (Rattus norvegicus [9]): 67%
8 | Cc1ccc(-c2nc(CCOc3ccc(C[C@H]4CO[C@@](C)(C(=O)O)OC4)cc3)c(C)o2)cc1 | 6.3 | 10.05 | 5.86 | –
9 | Cc1ccc(-c2nc(CCOc3ccc(C[C@H]4CO[C@@](C)(C(=O)O)OC4)cc3)c(C)o2)s1 | 6.8 | 10.52 | 6.62 | –
10 | Cc1cccc(Nc2cc(Cl)nc(SCC(=O)O)n2)c1C | 4.4 | – | – | –
11 | Cc1ccc(-c2nc(CCOc3ccc([C@H]4CO[C@@](C)(C(=O)O)OC4)cc3)c(C)o2)cc1 | – | – | – | Activity [1]: inactive
12 | Cc1ccc(-c2nc(COc3ccc(C[C@H]4CO[C@@](C)(C(=O)O)OC4)cc3)c(C)o2)cc1 | 8.2 | 10.14 | 7.82 | Activity (Mus musculus [4]): 50%; Activity (Mus musculus [5]): 57%; AUC(0-inf) [10]: 351 µg·h/mL; half-life [11]: 2.7 h; Activity (Rattus norvegicus [6]): 30%; Activity (Rattus norvegicus [7]): 51%; Activity (Rattus norvegicus [8]): 77%; Cmax [12]: 54 µg/mL; Activity (Rattus norvegicus [9]): 71%; Tmax [13]: 1.7 h
13 | Cc1oc(C(C)(C)C)nc1CCOc1ccc(C[C@H]2CO[C@@](C)(C(=O)O)OC2)cc1 | 5.8 | 8.38 | 5.30 | –
14 | Cc1oc(-c2ccccc2)nc1CCOc1ccc(C[C@H]2CO[C@@](C)(C(=O)O)OC2)cc1 | 5.3 | 9.57 | 5.39 | –
15 | Cc1oc(-c2ccccc2)nc1CCOc1ccc([C@H]2CO[C@@](C)(C(=O)O)OC2)cc1 | 3 | – | – | –
16 | CN(CCOc1ccc(CC2SC(=O)NC2=O)cc1)c1ccccn1 (stereo not given) [ROSIGLITAZONE] | – | – | – | Activity (Mus musculus [14]): 54%
